Source: patent US20100298285A1, “Biclycloheteroaryl Compounds as P2x7 Modulators and Uses Thereof” (priority 2006, published 2010)

The compounds below were run on IL-1β release, THP-1 cells (assay: IL-1β release assay in differentiated THP-1 cells stimulated with BzATP (Example 9)). Details: Homo sapiens; 0.1 μM compound ("*" symbols); differentiated THP-1 cells, 250 uM BzATP; read-out: IL-1β% Inhib. @ 0.3 or 0.1 μM.
Assay type: cell-based
Method in brief: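 THP-1 cells differentiated 16 h with 100 ng/mL LPS + 100 ng/mL IFN-γ, re-primed 2 h with fresh LPS 100 ng/mL, pretreated 30 min with compound, then stimulated with BzATP 250 uM final for 45 min. Supernatant IL-1β by ELISA; background-adjusted % inhibition, IC50 from four-parameter logistic fit.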
In the case of `Cc1cc(F)ccc1S(=O)(=O)N1CCc2c(ccc(Cl)c2NC(=O)Cc2ccc(C(F)(F)F)cc2)C1` [Compound 3010], the inhibition at 0.1 µM is reported as 0 to 25%.
`O=C(Cc1ccc(C(F)(F)F)cc1)Nc1c(Cl)ccc2c1CCN(S(=O)(=O)c1ccc(Cl)cc1)C2` [Compound 3013] gave an inhibition at 0.1 µM of 0 to 25%.
Work on `N#Cc1ccc(S(=O)(=O)N2CCc3c(ccc(Cl)c3NC(=O)Cc3ccc(C(F)(F)F)cc3)C2)cc1` [Compound 3029] yielded an inhibition at 0.1 µM of 0 to 25%.
`O=C(Cc1ccc(C(F)(F)F)cc1)Nc1c(Cl)ccc2c1CCN(S(=O)(=O)c1cc(Cl)cc(Cl)c1)C2` [Compound 3015] showed an inhibition at 0.1 µM of 0 to 25%.

Same assay, conditions: Homo sapiens; 0.3 μM compound ("+" symbols); differentiated THP-1 cells, 250 uM BzATP; read-out: IL-1β% Inhib. @ 0.3 or 0.1 μM
In the case of `COc1ccccc1C(=O)N1CCc2c(ccc(Cl)c2NC(=O)Cc2ccc(C(F)(F)F)c(F)c2)C1` [Compound 3120], the inhibition at 0.3 µM is reported as 0 to 25%.
Compound `Cc1cc(C(=O)N2CCc3c(ccc(Cl)c3NC(=O)Cc3cccc(C(F)(F)F)c3F)C2)nn1C` [Compound 3181] has an inhibition at 0.3 µM of 0 to 25%.
Compound `O=C(Cc1cccc(C(F)(F)F)c1F)Nc1c(Cl)ccc2c1CCN(C(=O)c1ccc(-c3ccccc3)cc1)C2` [Compound 3142] has an inhibition at 0.3 µM of 0 to 25%.
`O=C(Cc1ccc(C(F)(F)F)c(F)c1)Nc1c(Cl)ccc2c1CCN(C(=O)c1c(Cl)cccc1Cl)C2` [Compound 3068] gave an inhibition at 0.3 µM of 0 to 25%.
`CC(=O)N1CCc2c(ccc(Cl)c2NC(=O)Cc2cccc(C(F)(F)F)c2F)C1` [Compound 3136] showed an inhibition at 0.3 µM of 0 to 25%.
`O=C(Cc1cccc(C(F)(F)F)c1F)Nc1c(Cl)ccc2c1CCN(C(=O)c1ccc(Cl)cc1)C2` [Compound 3139] showed an inhibition at 0.3 µM of 0 to 25%.
`O=C(Cc1ccc(C(F)(F)F)c(F)c1)Nc1c(Cl)ccc2c1CCN(C(=O)c1cccc(Cl)c1)C2` [Compound 3093] gave an inhibition at 0.3 µM of 0 to 25%.
`Cc1nn(-c2ccccc2)nc1C(=O)N1CCc2c(ccc(Cl)c2NC(=O)Cc2ccc(C(F)(F)F)c(F)c2)C1` [Compound 3108] gave an inhibition at 0.3 µM of 0 to 25%.
`O=C(Cc1ccc(C(F)(F)F)c(F)c1)Nc1c(Cl)ccc2c1CCN(C(=O)c1cc(F)c(F)cc1F)C2` [Compound 3078] was tested, and the inhibition at 0.3 µM was 0 to 25%.
`O=C(Cc1ccc(C(F)(F)F)c(F)c1)Nc1c(Cl)ccc2c1CCN(C(=O)c1cc(Cl)cc(Cl)c1)C2` [Compound 3131] gave an inhibition at 0.3 µM of 0 to 25%.
For `CCC(C(=O)N1CCc2c(ccc(Cl)c2NC(=O)Cc2cccc(C(F)(F)F)c2F)C1)c1ccccc1` (stereo not shown) [Compound 3157], the inhibition at 0.3 µM was 0 to 25%.
`COc1ccc(C(=O)N2CCc3c(ccc(Cl)c3NC(=O)Cc3ccc(C(F)(F)F)c(F)c3)C2)cc1` [Compound 3076] showed an inhibition at 0.3 µM of 0 to 25%.

Same assay, conditions: Homo sapiens; THP-1 cells, BzATP 250 uM, four parameter logistic fit
`COc1ccc(OC)c(S(=O)(=O)N2CCc3c(ccc(C)c3NC(=O)Cc3ccc(C(F)(F)F)c(F)c3)C2)c1` [Compound 3452] gave an IC50 of 27.9 nM.
`Cc1ccc2c(c1NC(=O)Cc1ccc(C(F)(F)F)c(F)c1)CCN(S(=O)(=O)c1ccccc1F)C2` [Compound 3460] was tested, and the IC50 was 41.3 nM.
`Cc1ccc2c(c1NC(=O)Cc1ccc(C(F)(F)F)c(F)c1)CCN(C(=O)CCC1CCCCC1)C2` [Compound 3251] was tested, and the IC50 was 61.9 nM.
